Measured values published in US12138243B2, “Antiviral use of FABP4 modulating compounds” (CRESCENTA BIOSCIENCES, priority 2021, dated 2024).

Each compound was assayed on human coronavirus OC43 (assay: Antiviral activity: human coronavirus OC43 replication in differentiated 3T3-L1 mouse adipocyte cells, viral titers by TCID50 assay in MRC5 cells). Details: median fold reduction of virus titers vs vehicle control (DMSO); final compound concentration 10 µM; medium collected 24 hours after infection; differentiated 3T3-L1 adipocytes, 0.05 TCID50 per cell.
Format: cell-based
Experimental: Activity of compounds affecting viral replication and disease was tested against coronavirus replication in differentiated 3T3-L1 mouse adipocyte cells using human coronavirus OC43 as a model virus. 3T3-L1 preadipocytes (ATCC) were routinely cultured in a growth medium composed of DMEM high-glucose (Sigma), 10% FBS (Gibco), 10 U/ml penicillin and 10 μg/ml streptomycin (P/S; Gibco) in a standard cell culture incubator at 37° C. To induce adipogenic differentiation, a confluent layer of 3T3-L1 cells were incubated with the growth medium containing 2 μM rosiglitazone, 1 μM dexamethasone, 500 μM IBMX, and 1 μg/ml insulin (Sigma). Forty-eight (48) hours later (on day 2) and on days 4 and 6, medium of the cells was replaced with fresh medium containing 1 μg/ml insulin. On days 8 and 10, the medium was refreshed with regular growth medium and addition of insulin was omitted. On day 11 or 12, the cells were infected with human coronavirus OC43 (ATCC) at a multiplicity of 0.05 TCID50 (tissue-culture infectious-dose 50) per cell in DMEM containing 2% heat-inactivated FBS and P/S. One hour after infection, medium of the cells were replaced with fresh medium containing either the indicated FABP4 modulating compounds or the vehicle in which the compounds were dissolved (DMSO). The final compound concentration was 10 µM and final concentration of DMSO was 0.1% (v/v). The cells were incubated at 35° C. during the course of infection and compound treatment. Twenty-four hours after infection, medium of the cells was collected, cleared by centrifugation at 2,000g for 5 minutes, and frozen at −80 degrees C. until further processing. The viral titers in the samples were determined by TCID50 assay in MRC5 cells (ATCC) using Reed-Munch method, and median fold reduction of virus titers in compound treated cells compared to vehicle control was calculated.
`CCCCC1CCCc2c(n(Cc3cccc(C(N)=O)c3)c3c(C(=O)O)cccc23)C1` (centres unmarked) [Compound 1, 7-butyl-5-[(3-carbamoylphenyl)methyl]-5H,6H,7H,8H,9H,10H-cyclohepta[b]indole-4-carboxylic acid] was tested, and the Antiviral activity group was “B (between 10- to 99-fold)”.
For `CCCCC1CCCc2c(n(Cc3cccc(C#N)c3)c3c(C(=O)O)cccc23)C1` (centres unmarked) [Compound 2, 7-butyl-5-[(3-cyanophenyl)methyl]-5H,6H,7H, 8H,9H,10H-cyclohepta[b]indole-4-carboxylic acid], the Antiviral activity group was “A (reduced virus titers >100-fold)”.
For `CCCCC1CCCc2c(n(Cc3ccc(C)cc3)c3c(C(=O)O)cccc23)C1` (centres unmarked) [Compound 3, 7-butyl-5-[(4-methylphenyl)methyl]-5H,6H,7H,8H,9H,10H-cyclohepta[b]indole-4-carboxylic acid], the Antiviral activity group was “B (between 10- to 99-fold)”.
With `CCCCC1CCCc2c(n(Cc3ccccc3C)c3c(C(=O)O)cccc23)C1` (centres unmarked) [Compound 4, 7-butyl-5-[(2-methylphenyl)methyl]-5H,6H,7H,8H,9H,10H-cyclohepta[b]indole-4-carboxylic acid] the Antiviral activity group was “A (reduced virus titers >100-fold)”.
For `CCCCCCC1CCCc2c(n(Cc3cccc(C(N)=O)c3)c3c(C(=O)O)cccc23)C1` (centres unmarked) [Compound 5, 5-[(3-carbamoylphenyl)methyl]-7-hexyl-5H,6H,7H,8H,9H,10H-cyclohepta[b]indole-4-carboxylic acid], the Antiviral activity group was “B (between 10- to 99-fold)”.
`CCCCCCC1CCCc2c(n(Cc3cccc(C#N)c3)c3c(C(=O)O)cccc23)C1` (centres unmarked) [Compound 6, 5-[(3-cyanophenyl)methyl]-7-hexyl-5H,6H,7H,8H,9H,10H-cyclohepta[b]indole-4-carboxylic acid] was tested, and the Antiviral activity group was “A (reduced virus titers >100-fold)”.
`CCCCCCC1CCc2c(n(Cc3cccc(C(N)=O)c3)c3c(C(=O)O)cccc23)C1` (centres unmarked) [Compound 7, 9-[(3-carbamoylphenyl)methyl]-2-hexyl-2,3,4,9-tetrahydro-1H-carbazole-8-carboxylic acid] was tested, and the Antiviral activity group was “B (between 10- to 99-fold)”.
For `CCCCCCC1CCc2c(n(Cc3cccc(C#N)c3)c3c(C(=O)O)cccc23)C1` (centres unmarked) [Compound 8, 9-[(3-cyanophenyl)methyl]-2-hexyl-2,3,4,9-tetrahydro-1H-carbazole-8-carboxylic acid], the Antiviral activity group was “B (between 10- to 99-fold)”.
In the case of `CCCCCCC1CCc2c(n(Cc3cccnc3)c3c(C(=O)O)cccc23)C1` (centres unmarked) [Compound 9, 2-hexyl-9-[(pyridin-3-yl)methyl]-2,3,4,9-tetrahydro-1H-carbazole-8-carboxylic acid], the Antiviral activity group is reported as “A (reduced virus titers >100-fold)”.
In the case of `CCCCCCC1CCc2c(n(Cc3ccccc3C)c3c(C(=O)O)cccc23)C1` (centres unmarked) [Compound 10, 2-hexyl-9-[(2-methylphenyl)methyl]-2,3,4,9-tetrahydro-1H-carbazole-8-carboxylic acid], the Antiviral activity group is reported as “A (reduced virus titers >100-fold)”.
With `CCCCCCC1CCc2c(n(Cc3ccccc3F)c3c(C(=O)O)cccc23)C1` (centres unmarked) [Compound 11, 9-[(2-fluorophenyl)methyl]-2-hexyl-2,3,4,9-tetrahydro-1H-carbazole-8-carboxylic acid] the Antiviral activity group was “A (reduced virus titers >100-fold)”.
In the case of `CCCCC1CCCc2c1n(Cc1cccc(C(N)=O)c1)c1c(C(=O)O)cccc21` (centres unmarked) [Compound 12, 1-butyl-9-[(3-carbamoylphenyl)methyl]-2,3,4,9-tetrahydro-1H-carbazole-8-carboxylic acid], the Antiviral activity group is reported as “C (between 2- to 9-fold)”.
With `CCCCC1CCCc2c1n(Cc1cccc(C#N)c1)c1c(C(=O)O)cccc21` (centres unmarked) [Compound 13, 1-butyl-9-[(3-cyanophenyl)methyl]-2,3,4,9-tetrahydro-1H-carbazole-8-carboxylic acid] the Antiviral activity group was “B (between 10- to 99-fold)”.
`CCCCC1CCCCc2c1n(Cc1cccc(C(N)=O)c1)c1c(C(=O)O)cccc21` (centres unmarked) [Compound 14, 6-butyl-5-[(3-carbamoylphenyl)methyl]-5H,6H,7H,8H,9H,10H-cyclohepta[b]indole-4-carboxylic acid] was tested, and the Antiviral activity group was “B (between 10- to 99-fold)”.
In the case of `CCCCC1CCCCc2c1n(Cc1cccc(C#N)c1)c1c(C(=O)O)cccc21` (centres unmarked) [Compound 15, 6-butyl-5-[(3-cyanophenyl)methyl]-5H,6H,7H,8H,9H,10H-cyclohepta[b]indole-4-carboxylic acid], the Antiviral activity group is reported as “B (between 10- to 99-fold)”.
In the case of `CCCCC1CCc2c1n(Cc1cccc(C(N)=O)c1)c1c(C(=O)O)cccc21` (centres unmarked) [Compound 16, 3-butyl-4-[(3-carbamoylphenyl)methyl]-1H,2H,3H,4H-cyclopenta[b]indole-5-carboxylic acid], the Antiviral activity group is reported as “C (between 2- to 9-fold)”.
`CCCCC1Cc2c(n(Cc3cccc(C(N)=O)c3)c3c(C(=O)O)cccc23)C1` (centres unmarked) [Compound 17, 2-butyl-4-[(3-carbamoylphenyl)methyl]-1H,2H,3H,4H-cyclopenta[b]indole-5-carboxylic acid] was tested, and the Antiviral activity group was “C (between 2- to 9-fold)”.
`CCCCC1Cc2c(n(Cc3cccc(C#N)c3)c3c(C(=O)O)cccc23)C1` (centres unmarked) [Compound 18, 2-butyl-4-[(3-cyanophenyl)methyl]-1H,2H,3H,4H-cyclopenta[b]indole-5-carboxylic acid] was tested, and the Antiviral activity group was “C (between 2- to 9-fold)”.
With `CCCCC1CCCCc2c1c1cccc(C(=O)O)c1n2Cc1cccc(C(N)=O)c1` (centres unmarked) [Compound 19, 10-butyl-5-[(3-carbamoylphenyl)methyl]-5H,6H,7H,8H,9H,10H-cyclohepta[b]indole-4-carboxylic acid] the Antiviral activity group was “C (between 2- to 9-fold)”.
For `CCCCC1CCc2c(c3cccc(C(=O)O)c3n2Cc2cccc(C(N)=O)c2)C1` (centres unmarked) [Compound 20, 3-butyl-9-[(3-carbamoylphenyl)methyl]-2,3,4,9-tetrahydro-1H-carbazole-8-carboxylic acid], the Antiviral activity group was “C (between 2- to 9-fold)”.
In the case of `CCc1c(-c2ccccc2)c(-c2ccccc2)nn1-c1ccccc1-c1cccc(OCC(=O)O)c1` [Compound 21, 2-((2′-(5-Ethyl-3,4-diphenyl-1H-pyrazol-1-yl)-[1,1′-biphenyl]-3-yl)oxy)acetic acid, reference compound], the Antiviral activity group is reported as “C (between 2- to 9-fold)”.
For `Clc1ccc2nc(N3CCCCC3)c(-c3nnn[nH]3)c(-c3ccccc3)c2c1` [Compound 22, 6-chloro-4-phenyl-2-(piperidin-1-yl)-3-(1H-tetrazol-5-yl)quinoline, reference compound], the Antiviral activity group was “A (reduced virus titers >100-fold)”.
In the case of `Cc1c(Cl)cccc1OCc1cc(=O)n2nc(-c3ccccc3)nc2[nH]1` [Compound 23, 5-((3-chloro-2-methylphenoxy)methyl)-2-phenyl-[1,2,4]triazolo[1,5-a]pyrimidin-7(4H)-one, reference compound], the Antiviral activity group is reported as “B (between 10- to 99-fold)”.
